Measured values taken from patent US20090311716A1, “METHODS TO TREAT OR PREVENT HORMONE-RESISTANT PROSTATE CANCER USING siRNA [sequence] FOR PROTOCADHERIN-PC, OR OTHER INHIBITORS OF PROTOCADHERIN-PC EXPRESSION OR ACTIVITY” (THE TRUSTEES OF COLUMBIA UNIVERSITY IN THE CITY OF NEW YORK, priority 2005, published 2009).
Entries after “also recorded” stand apart in the source; their conditions may differ. Peptide text beside a SMILES is read from it. * marks the point of attachment. Cbz = O=C(OCc1ccccc1)*

Columns and labels:
Assay type in all cases: cell-based, human
hAR protein = assay: Western blot of hAR protein in Wnt-activated LNCaP cells; settings: β-catenin or PCDH-PC transfected or 7 days androgen-free LNCaP
Source text: FIGS. 43A-43C. […] FIG. 43A. […] FIG. 43B.
(§1) FIGS. 44A-44B. Suppression of MDM2 expression or direct Akt activity relieves Wnt-mediated suppression of hAR protein expression. FIG. 44A. […] (middle). Actin control (bottom). FIG. 44B. […] Actin control (bottom).
(§2) Cell lines, plasmids and siRNAs. LNCaP, CWR22rv-1, PC-3 and DU145 cells were obtained from ATCC and were passaged in normal (for LNCaP, RPMI 1640 with 10% fetal calf serum and supplements) or androgen-free maintained as previously described (Yang et al., 2005). A defective adenovirus that expresses Wnt-1 protein (Ad-Wnt-1) and control, Lac Z expressing adenovirus (Ad-lac Z) were previously described (Young et al., 1998). These viruses were applied at 20 particles/cell in low serum (2%) medium for 1 h. Expression plasmids containing mutated (stabilized) human β-catenin (Tetsu and McCormick, 1999), dominant negative TCF-4 (Chen et al., 2001) or PCDH-PC cDNA were transfected into cells as previously described (Example 1; Yang et al., 2005). Small interfering (si) RNAs targeting β-catenin or lamin were purchased from Dharmacon Inc. siRNA targeting human MDM2 was purchased from Qiagen Inc (Valencia, Calif.). siRNAs were transfected into cells. Proteasome inhibitors MG132 and lactacystin were purchased from Sigma Chemical Co. (St Louis, Mo.) and were used at 5 (MG 132) or 10 (lactacystin) […] for 12 h prior to cell harvesting. PI3-kinase inhibitor LY294002 (Sigma Chemical Co.) and Akt Inhibitor IV (compound 5233705, EMD Biosciences Inc., San Diego, Calif.) (Kau et al., 2003) were used at 4 and 50 mM concentrations, respectively, for 12 h prior to harvesting cells.
(§3) Preparation of cell extracts and western blots. Cells were harvested and protein extracts prepared, quantified and used to prepare Western blots as previously described (Example 1; Yang et al., 2005). […] Recombinant Wnt-1 protein (HA-tagged) was detected with anti-HA antibody (Clontech Inc., Mountain View, Calif.). Antibody binding to the Western blot was detected as previously described (Yang et al., 2005). […]

MDM2 = assay: Western blot of phosphorylated MDM2 in Wnt-activated LNCaP cells; settings: β-catenin transfected or 7 days androgen-free LNCaP
Source text: as §1
(§4) FIG. 45. Proteasome inhibitors block the suppression of MDM2 phosphorylation and suppress degradation of PP2A B subunit protein in Wnt-activated LNCaP cells. […] There was no change in the PP2A catalytic C subunit levels in Wnt-activated or proteasome-inhibitor treated cells (bottom).
as §2, with “PI3-kinase inhibitor LY294002 (Sigma Chemical Co.) and Akt Inhibitor IV (compound 5233705, EMD Biosciences Inc., San Diego, Calif.) (Kau et al., 2003) were used at 4 and 50 mM concentrations, respectively, for 12 h prior to harvesting cells.” left out
as §3

PP2A B subunit = assay: Western blot of PP2A B subunit in Wnt-activated LNCaP cells
Source text: as §4
Preparation of cell extracts and western blots. Cells were harvested and protein extracts prepared, quantified and used to prepare Western blots as previously described (Example 1; Yang et al., 2005). Western blots were probed with mouse monoclonal antibodies against human Akt protein, phospho-MDM2 (ser 166), hAR (Santa Cruz Biotechnology Inc., Santa Cruz, Calif.), actin (Sigma Chemical Co., St Louis, Mo.) or with rabbit polyclonal antibodies against phospho-Akt (ser 473) or human MDM2 (Cell Signaling Technology, Beverly, Mass.). Recombinant Wnt-1 protein (HA-tagged) was detected with anti-HA antibody (Clontech Inc., Mountain View, Calif.). Antibody binding to the Western blot was detected as previously described (Yang et al., 2005). Densitometry of films was carried out using a Kodak Image Station 420.

PCDH-PC mRNA = assay: RT-PCR of PCDH-PC mRNA in LNCaP cells; settings: 1 mM db-cAMP, 50 ng/ml IL-6 or 5 nM NS-398, 5 days
Source text: (§5) FIGS. 3A-3D. […] FIG. 3A. […] FIG. 3B. […] FIG. 3C. […] FIG. 3D.
FIG. 5A. […] FIG. 5B. […] FIG. 5C.

NSE and chromogranin-A = assay: Western blot of NE biomarkers in LNCaP cells treated with NE transdifferentiation inducers; settings: 1 mM db-cAMP, 50 ng/ml IL-6 or 5 nM NS-398, 5 days
Source text: as §5

PCDH-PC = assay: Western blot of myc-tagged PCDH-PC in LNCaP cells co-transfected with pPCDH-PC-myc and siRNA; settings: siRNA 100 nM co-transfected with pPCDH-PC-myc, 48 hrs
Source text: FIGS. 4A-4B. siRNAs against PCDH-PC suppress PCDH-PC expression and NE transdifferentiation of LNCaP cells. FIG. 4A. LNCaP cells were transfected with the pPCDH-PC-myc expression vector and were co-transfected with siRNA against human lamin or siRNAs 181, 190 or 208 designed to suppress PCDH-PC expression. A Western blot made against protein extracts from these cells were probed with anti-myc (Top Panel) to identify expression of the 110 kd PCDH myc-tagged protein, anti-β-actin (Middle Panel) or anti-human E-cadherin (Bottom Panel). FIG. 4B. A repeated experiment that includes control LNCaP cells (no transfection) or pCMV-PCDH-myc transfected LNCaP cells co-transfected with siRNAs against lamin or against PCDH-PC (181, 190 or 208). The Western blot was probed for NSE expression (Top Panel) or for β-actin expression (Bottom Panel).
Expression Vectors, Transfection Protocols and Luciferase/β-Glactosidase Assays. PCDH-PC cDNA was inserted into the mammalian expression vectors pcDNA3 (Invitrogen Life Technologies, Inc., Carlsbad, Calif.) or into pCMV-myc (BD Biosciences, Clontech, Inc., Palo Alto, Calif.) so that the PCDH-PC product generated from this vector (pPCDH-PC-myc) has a C-terminal myc tag. An expression vector containing cDNA encoding a mutated (stabilized) form of human β-catenin (Tetsu and McCormick, 1999) was used. A dominant-negative Tcf expression vector used was previously described (Chen et al., 2001). The Tcf-sensitive reporter vector, pTOP and a CMV-promoted β-galactosidase expression vector were obtained from Upstate Biotechnology, Inc. Transfections used for protein or RNA extractions were done in 35 cm^2 dishes with cells plated at 50% density 12-16 hrs prior. […] Luciferase activity in cell extracts was measured using the Luciferase Assay System of Promega, Inc. (Madison, Wis.). β-galactosidase activity was also measured in the same cell extracts using the β-galactosidase Enzyme Assay System of Promega, Inc. All experiments involving luciferase reporter vectors were done in triplicate for each point. […]

## CC(C)C[C@@H](C=O)NC(=O)[C@H](CC(C)C)NC(=O)[C@H](CC(C)C)NC(=O)OCc1ccccc1 [MG132] (Cbz-Leu-Leu-Leu-aldehyde)
hAR protein
  Wnt-mediated suppression of hAR protein expression: restored to levels commensurate with elevated hAR mRNA levels
MDM2
  Wnt-mediated upregulation of MDM2 phosphorylation: blocked
PP2A B subunit
  loss of PP2A regulatory subunit B: blocked

## CS(=O)(=O)Nc1ccc([N+](=O)[O-])cc1OC1CCCCC1 [NS-398]
PCDH-PC mRNA
  expression of PCDH-PC mRNA: highly upregulated
NSE and chromogranin-A
  expression of NSE and chromogranin-A proteins: highly upregulated

## CC[n+]1c(/C=C/N(C)c2ccccc2)n(-c2ccccc2)c2ccc(-c3nc4ccccc4s3)cc21.[I-] [compound 5233705]
hAR protein
  Wnt-mediated suppression of hAR protein expression: significant elevation; also recorded: relieves
MDM2
  Wnt-mediated upregulation of MDM2 phosphorylation: able to suppress; also recorded: relieves

## CC(=O)N[C@@H](CSC(=O)[C@]1([C@@H](O)C(C)C)NC(=O)[C@H](C)[C@@H]1O)C(=O)O [lactacystin]
hAR protein
  Wnt-mediated suppression of hAR protein expression: restored to levels commensurate with elevated hAR mRNA levels
MDM2
  Wnt-mediated upregulation of MDM2 phosphorylation: blocked
PP2A B subunit
  loss of PP2A regulatory subunit B: blocked

## interleukin-6 [IL-6]
PCDH-PC mRNA
  expression of PCDH-PC mRNA: highly upregulated
NSE and chromogranin-A
  expression of NSE and chromogranin-A proteins: highly upregulated

## siRNA #190: 21 bp siRNA targeting PCDH-PC mRNA position 3098-3117, 19 bp core with UU overhangs (SEQ ID NO:6) (AAACATGCAGAATTCTGAATG; listed as DNA, further chemistry not given here)
PCDH-PC
  expression of myc-tagged PCDH-PC polypeptide: suppressive effects

## siRNA #208: 21 bp siRNA targeting PCDH-PC mRNA position 3345-3364, 19 bp core with UU overhangs (SEQ ID NO:7) (AAGAAACTAAGGCAGATGATG; listed as DNA, further chemistry not given here)
PCDH-PC
  expression of myc-tagged PCDH-PC polypeptide: suppressive effects
